Each block holds one molecule with its values, some of them ahead of it.
What was measured:
RAD52 [1] = test system: RAD52; set-up: method as in Chandramouly et al., 2015; details: ref Chandramouly et al., 2015; cited from earlier work
RAD52 [2] = molecular target: T1, RAD52 (Homo sapiens, UniProt P43351); experiment: WaterLOGSY NMR binding to RAD52; details: 20-40 μM compound, 3.3 μM RAD52
T1 construct: made in house
T1 sequence (P43351 1-418): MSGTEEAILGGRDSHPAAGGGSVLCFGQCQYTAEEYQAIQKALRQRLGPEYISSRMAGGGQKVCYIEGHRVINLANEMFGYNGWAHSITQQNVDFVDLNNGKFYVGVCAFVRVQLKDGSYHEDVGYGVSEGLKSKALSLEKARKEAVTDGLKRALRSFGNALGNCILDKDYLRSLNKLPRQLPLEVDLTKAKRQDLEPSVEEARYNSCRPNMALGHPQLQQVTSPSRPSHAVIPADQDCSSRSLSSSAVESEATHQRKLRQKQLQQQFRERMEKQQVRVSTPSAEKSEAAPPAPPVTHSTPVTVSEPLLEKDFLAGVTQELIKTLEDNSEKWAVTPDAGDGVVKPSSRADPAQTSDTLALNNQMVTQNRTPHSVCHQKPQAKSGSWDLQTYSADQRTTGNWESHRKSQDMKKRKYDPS
Description: (§1) To confirm that the selected compounds bind RAD52, we employed water-ligand observation with gradient spectroscopy (WaterLOGSY), an NMR technique, which is based on transfer of magnetization from bulk water to the protein-bound compound of interest ([Dalvit et al., 2001], [2000]). In WaterLOGSY spectrum, if a compound binds to a protein, the compound will receive negative nuclear Overhauser effects (NOEs) due to the slow tumbling of the protein-compound complex, leading to a positive WaterLOGSY peak. […] Similarly, the binding of ‘6’to RAD52 is evident from the positive WaterLOGSY peaks that are clearly detected for this compound (Figure 3a).
(§2) Compound binding to RAD52 and RPA proteins was analyzed using water-ligand observation with gradient spectroscopy (WaterLOGSY) NMR experiments ([Dalvit et al., 2001], [2000]). The WaterLOGSY spectra of compounds in the presence of RAD52 or RPA were acquired using a water NOE mixing time of 1 s and a T2 relaxation filter of 50 ms just before data acquisition to suppress the broad signals derived from protein. The protein buffer used in the experiments contains 10 mM Tris-d11, 75 mM KCl, 0.25 mM EDTA, pH 7.5, and 10% D20. All NMR data were acquired on a Bruker Avance II 800 MHz NMR spectrometer equipped with a sensitive cryoprobe and recorded at 25°C. The ^1H chemical shifts were referenced to 2,2-dimethyl-2-silapentane-5-sulfonate (DSS). NMR spectra were processed using NMR Pipe ([Delaglio et al., 1995]) and analysed using NMR View ([Johnson and Blevins, 1994]).

RPA [3] = molecular target: T2, RPA (Homo sapiens, UniProt P15927+P27694+P35244); experiment: WaterLOGSY NMR binding to RPA; details: 20-40 μM compound, 3.3 μM RPA
T2 construct: made in house
T2 sequence (P27694 whole entry): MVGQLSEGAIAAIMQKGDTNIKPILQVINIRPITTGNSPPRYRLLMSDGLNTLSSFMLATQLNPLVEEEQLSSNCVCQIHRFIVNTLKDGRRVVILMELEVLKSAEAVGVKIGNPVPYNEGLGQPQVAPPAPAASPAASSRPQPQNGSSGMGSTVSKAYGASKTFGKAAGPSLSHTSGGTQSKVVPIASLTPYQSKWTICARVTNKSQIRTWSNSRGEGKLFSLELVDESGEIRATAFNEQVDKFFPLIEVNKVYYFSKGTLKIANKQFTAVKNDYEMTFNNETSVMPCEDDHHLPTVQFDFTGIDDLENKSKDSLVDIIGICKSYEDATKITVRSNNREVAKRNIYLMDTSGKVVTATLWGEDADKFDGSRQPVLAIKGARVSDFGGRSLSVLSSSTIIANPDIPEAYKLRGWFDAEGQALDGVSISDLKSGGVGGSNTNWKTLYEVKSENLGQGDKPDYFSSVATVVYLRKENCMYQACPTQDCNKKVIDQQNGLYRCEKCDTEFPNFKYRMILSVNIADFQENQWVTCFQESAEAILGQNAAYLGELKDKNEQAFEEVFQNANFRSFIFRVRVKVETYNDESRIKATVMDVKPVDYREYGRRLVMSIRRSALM
T2 sequence (P15927 whole entry): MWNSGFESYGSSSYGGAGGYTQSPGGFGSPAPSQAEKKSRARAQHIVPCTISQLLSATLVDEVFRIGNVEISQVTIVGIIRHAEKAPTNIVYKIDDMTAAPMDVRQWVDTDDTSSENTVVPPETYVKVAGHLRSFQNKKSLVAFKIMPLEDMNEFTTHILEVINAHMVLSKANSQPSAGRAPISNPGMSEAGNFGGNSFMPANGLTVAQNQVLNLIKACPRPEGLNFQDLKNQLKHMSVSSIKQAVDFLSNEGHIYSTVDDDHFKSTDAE
T2 sequence (P35244 whole entry): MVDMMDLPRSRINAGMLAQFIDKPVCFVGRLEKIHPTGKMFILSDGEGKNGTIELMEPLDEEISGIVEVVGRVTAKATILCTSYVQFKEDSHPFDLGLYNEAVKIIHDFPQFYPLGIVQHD
Description: as §1, §2

RPA-ssDNA interaction = molecular target: T3, RPA-ssDNA interaction (Homo sapiens, UniProt P15927+P27694+P35244); experiment: FRET titration of the RPA-Cy3-dT30-Cy5 complex; type: binding; details: range of tested concentrations
T3 construct: made in house
T3 sequence (P27694 whole entry): as the sequence (P27694 whole entry) above
T3 sequence (P15927 whole entry): as the sequence (P15927 whole entry) above
T3 sequence (P35244 whole entry): as the sequence (P35244 whole entry) above
Description: In the cell, ssDNA is typically found in complex with Replication protein A (RPA), the major eukaryotic ssDNA-binding protein essential for DNA replication, repair and recombination ([Wold, 1997]; [Oakley and Patrick, 2010]; [Chen and Wold, 2014]). The RPA-ssDNA complex is a physiologically relevant substrate for the RAD52-mediated strand annealing. […] RPA binds ssDNA with high affinity and extends the ssDNA to its contour length. In our assays such an extension manifests as a distinct FRET state of ~0.3, which is readily distinguished from a FRET state of ~0.48 of free Cy3-dT30-Cy5 ssDNA, as well as ~0.63 FRET of the stoichiometric ssDNA-RPA-RAD52 complex (see Figure 2—figure supplement 1 and ([Grimme and Spies, 2011]) for details). […] Both, however, inhibited the RAD52 binding to and wrapping of RPA-coated ssDNA with IC50 values identical to those determined without RPA (Figure 2e and Figure 3e).
In all experiments, the FRET values for each data point were corrected for the effects of the compounds on the respective substrate in the absence of RAD52.

[4] = test system: GM01604 cells (hTERT-immortalized wild-type human fibroblasts); experiment: Neutral comet assay, MUS81/EME1/RAD52-dependent DSB formation; type: cell-based; details: Homo sapiens, Fibroblast; GM01604, 2 mM HU + 300 nM UCN01, 6h; read-out: IC50, decrease of mean tail moment following HU treatment
Description: In human cells, RAD52 may perform both limited recombination-mediator function in the RAD51-dependent pathway ([Lok and Powell, 2012]; [Benson et al., 1998]; [Feng et al., 2011]) as well as additional RAD51-independent roles ([Lok and Powell, 2012]; [Murfuni et al., 2013]; [McIlwraith and West, 2008]). One of these HR independent roles of RAD52 involves stimulation of MUS81/EME1-dependent DSB formation at replication forks stalled by hydroxyurea (HU) treatment in the absence of cellular checkpoints ([Murfuni et al., 2013]). Since the most likely targets of these MUS81/EME1/RAD52-dependent DSBs are the DNA structures produced by RAD52 ([Murfuni et al., 2013]), we expected this activity to depend on the RAD52-ssDNA interaction (Figure 5a). To confirm this, we assessed DSB formation in checkpoint deficient cells using the neutral comet assay. These assays monitor MUS81/EME1/RAD52-dependent DSB formation upon induction of replication stress by HU treatment in primary fibroblasts immortalized by hTERT expression and treated with UNC01 to inhibit CHK1 kinase (Figure 5b). […] Importantly, these inhibitors recapitulate RAD52 depletion by inhibiting RAD52-MUS81-dependent DSBs at stalled replication forks (Figure 5a–b). […] It also confirms our previous supposition that the target of MUS81/EME1-mediated cleavage under these conditions are indeed the structures annealed by RAD52. […]
To induce RAD52-MUS81-dependent cleavage at arrested replication forks ([Murfuni et al., 2013]), hTERT-immortalized wild-type human fibroblasts (GM01604) were treated with 2 mM HU and 300 nM UCN01 for 6h, in the presence and absence of varying concentrations of ‘1’ or ‘6’. […] Slides were analyzed by a computerized image analysis system (Comet IV, Perceptive UK). To assess the quantity of DNA damage, computer-generated tail moment values (tail length x fraction of total DNA in the tail) were used. […] A minimum of 100 cells were analyzed for each compound concentration point.

[5] = molecular target: T4, interaction between RAD52 and RPA proteins (Homo sapiens, UniProt P43351); experiment: Ni-NTA pull-down of the RAD52-RPA interaction; type: binding; details: 3 μM RAD52, 3 μM RPA, 3 μM compound
T4 construct: made in house
T4 sequence (P27694 whole entry partner, one chain of several): as the sequence (P27694 whole entry) above
T4 sequence (P15927 whole entry partner, one chain of several): as the sequence (P15927 whole entry) above
T4 sequence (P35244 whole entry partner, one chain of several): as the sequence (P35244 whole entry) above

RAD52;RPA = RAD52;RPA (Homo sapiens?;Homo sapiens?, UniProt P43351;P27694;P15927;P35244 1-418;1-616;1-270;1-121, |); experiment: FRET; 1 nM RPA-coated ssDNA titrated with RAD52; FRET about 0.63; FRET: 30 mM Tris-acetate pH 7.5, 1 mM DTT, 0.1 mg/mL BSA, 25 C; HTS: 20 mM Hepes pH 7.5, 1 mM DTT, 0.1 mg/mL BSA, 25 C; details: protein: recombinant;recombinant; tags: ;; chain copies: 7;1;1;1; label: Cy3 and Cy5 at the two ends
RAD52;RPA, sequence (P27694 whole entry, chain 2 of 3): as the sequence (P27694 whole entry) above
RAD52;RPA, sequence (P15927 whole entry, chain 3 of 3): as the sequence (P15927 whole entry) above
RAD52;RPA, sequence (P35244 whole entry, chain 4 of 3): as the sequence (P35244 whole entry) above

RAD52 [6] = molecular target: T5, RAD52 (UniProt P43351 1-418); experiment: FRET; 1 nM ssDNA; stoichiometric wrapped complex at about 8 nM RAD52; FRET: 30 mM Tris-acetate pH 7.5, 1 mM DTT, 0.1 mg/mL BSA, 25 C; HTS: 20 mM Hepes pH 7.5, 1 mM DTT, 0.1 mg/mL BSA, 25 C; details: protein: recombinant; chain copies: 7; label: Cy3 and Cy5 at the two ends
T5 sequence: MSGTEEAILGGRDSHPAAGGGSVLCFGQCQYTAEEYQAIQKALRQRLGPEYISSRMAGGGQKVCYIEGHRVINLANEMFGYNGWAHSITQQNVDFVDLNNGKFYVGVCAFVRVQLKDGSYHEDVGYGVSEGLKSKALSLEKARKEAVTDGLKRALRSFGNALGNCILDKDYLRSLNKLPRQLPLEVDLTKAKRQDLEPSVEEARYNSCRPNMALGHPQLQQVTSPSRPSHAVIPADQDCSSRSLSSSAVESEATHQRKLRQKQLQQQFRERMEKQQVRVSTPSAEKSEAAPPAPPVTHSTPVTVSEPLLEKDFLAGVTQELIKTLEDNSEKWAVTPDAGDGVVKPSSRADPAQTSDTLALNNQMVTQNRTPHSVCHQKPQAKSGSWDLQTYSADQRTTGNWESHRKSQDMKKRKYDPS

RPA [7] = molecular target: RPA (UniProt P27694;P15927;P35244 1-616;1-270;1-121); experiment: FRET; 1 nM RPA, 1 nM ssDNA; FRET about 0.3 versus about 0.48 for free DNA; FRET: 30 mM Tris-acetate pH 7.5, 1 mM DTT, 0.1 mg/mL BSA, 25 C; HTS: 20 mM Hepes pH 7.5, 1 mM DTT, 0.1 mg/mL BSA, 25 C; details: protein: recombinant; copies: 1;1;1; label: Cy3 and Cy5 at the two ends
RPA (UniProt P27694;P15927;P35244 1-616;1-270;1-121), sequence (P27694 whole entry, chain 1 of 3): as the sequence (P27694 whole entry) above
RPA (UniProt P27694;P15927;P35244 1-616;1-270;1-121), sequence (P15927 whole entry, chain 2 of 3): as the sequence (P15927 whole entry) above
RPA (UniProt P27694;P15927;P35244 1-616;1-270;1-121), sequence (P35244 whole entry, chain 3 of 3): as the sequence (P35244 whole entry) above

[8] = molecular target: the molecule itself; experiment: dynamic light scattering; average hydrodynamic radius of RAD52 (15.8 uM) alone or with equimolar compound; 25 C; 50 mM Tris-HCl pH 7.5, 200 mM KCl, 1 mM DTT, 0.5 mM EDTA

Molecule: NC(Cc1cc(O)c(O)cc1O)C(=O)O (racemic) [6-hydroxy-DL-dopa]
effect on RAD52 supramolecular assembly (RAD52 [1]): disrupts supramolecular assembly of the RAD52 protein

binding to RAD52 (WaterLOGSY) (RAD52 [2]): physically interact with RAD52 protein
binding to RPA (WaterLOGSY) (RPA [3]): also binds to RPA
Molecule: O=C(OC1Cc2c(O)cc(O)cc2OC1c1cc(O)c(O)c(O)c1)c1cc(O)c(O)c(O)c1 (stereo not shown) [Compound 6, Epigallocatechin-3-monogallate]
effect on the RPA-ssDNA interaction (RPA-ssDNA interaction): neither ‘1’ nor ‘6’ affected the RPA-ssDNA interaction
IC50 [4]: ~10 µM
effect on the RAD52-RPA interaction [5]: neither ‘1’ nor ‘6’ interfered with the interaction between the two proteins

B1: Cy3-dT30-Cy5 (ssDNA)
DNA: TTTTTTTTTTTTTTTTTTTTTTTTTTTTTT
binding result (RAD52;RPA): binds
binding result (RAD52 [6]): binds
binding result (RPA [7]): binds

B2: 6xHis-tagged human RAD52 protein (natural protein, UniProt P43351 1-418, looked up)
chain: MSGTEEAILGGRDSHPAAGGGSVLCFGQCQYTAEEYQAIQKALRQRLGPEYISSRMAGGGQKVCYIEGHRVINLANEMFGYNGWAHSITQQNVDFVDLNNGKFYVGVCAFVRVQLKDGSYHEDVGYGVSEGLKSKALSLEKARKEAVTDGLKRALRSFGNALGNCILDKDYLRSLNKLPRQLPLEVDLTKAKRQDLEPSVEEARYNSCRPNMALGHPQLQQVTSPSRPSHAVIPADQDCSSRSLSSSAVESEATHQRKLRQKQLQQQFRERMEKQQVRVSTPSAEKSEAAPPAPPVTHSTPVTVSEPLLEKDFLAGVTQELIKTLEDNSEKWAVTPDAGDGVVKPSSRADPAQTSDTLALNNQMVTQNRTPHSVCHQKPQAKSGSWDLQTYSADQRTTGNWESHRKSQDMKKRKYDPS
notes: RAD52, human DNA repair protein; the N-terminal domain in PDB 1KNO is an undecameric ring
binding result [8]: binds
